In patent EP2386565A2, “Compounds and methods to inhibit or augment an inflammatory response” (Cambridge Enterprise Ltd., priority 1999, dated 2000):
Positions of bridges follow the written chain, without caps; N, C: chain ends. Non-standard residues stand in square brackets, D forms with d. Residues, ends and D or L forms follow the SMILES beside them.

What was measured:
trypsin = test: Stability against enzymatic destruction; format: in vitro ADME; conditions: 5 units trypsin for 2 hrs at 37°C
Excerpt: For example, to prepare a peptide 3 derivative, peptide 3(3-12)[MCP-1] was modified according to Jameson et al. (Nature, 368, 744 (1994)), which yielded CRD-Cys13Leu4Ile11peptide 3(3-12)[MCP-1] (Figure 3).

[1] = Serum half-life of glucose conjugate after s.c. injection; format: in vivo, rats; conditions: unmodified peptide, comparison value
Method: To determine whether sugar conjugates of an agent of the invention had increased plasma half-lives, a glucose conjugate of CRD-Leu4Ile11Cys13 peptide 3(3-12)[MCP-1] was prepared and administered to rats. The conjugate was synthesized by mixing D-glucose (50 mM) and CRD-Leu4Ile11Cys13 peptide 3(3-12)[MCP-1] (1 mM) in phosphate buffered saline and incubating at room temperature for 16 hours. The reaction mixture was then subject to analytical HPLC which indicated a yield of about 30%. The material was then treated with cyanoborohydride to effect reduction of the schiffs base linkage and stabilize the glucosides for purification. The stabilized glucosides were then subjected to preparative HPLC and the mono- and di-substituted glucosides prepared separately. The monoglucoside was obtained at >90% purity in approximately 10% yield, and it is likely that the material is a mixture of Lys5-glucoside and Lys-7 glucoside.
The CRD-Leu4Ile11Cys13 peptide 3(3-12)[MCP-1] monoglucoside was injected into 3 rats (5 mg per rat via s.c. route in sterile PBS). Blood samples were withdrawn through an i.v. cannula at various time points, and CRD-Leu4Ile11Cys13 peptide 3(3-12)[MCP-1] glucoside was quantitated in the serum.

[2] = target: T1, 5-HT1a serotonin receptors (Homo sapiens, UniProt P08908); test: Competition of 3H-8-OH-DPAT binding to membranes; conditions: 100 µM highest concentration tested
T1 construct: purchased RBI/Sigma S-160; host or cells: membranes
T1 sequence (P08908 whole entry): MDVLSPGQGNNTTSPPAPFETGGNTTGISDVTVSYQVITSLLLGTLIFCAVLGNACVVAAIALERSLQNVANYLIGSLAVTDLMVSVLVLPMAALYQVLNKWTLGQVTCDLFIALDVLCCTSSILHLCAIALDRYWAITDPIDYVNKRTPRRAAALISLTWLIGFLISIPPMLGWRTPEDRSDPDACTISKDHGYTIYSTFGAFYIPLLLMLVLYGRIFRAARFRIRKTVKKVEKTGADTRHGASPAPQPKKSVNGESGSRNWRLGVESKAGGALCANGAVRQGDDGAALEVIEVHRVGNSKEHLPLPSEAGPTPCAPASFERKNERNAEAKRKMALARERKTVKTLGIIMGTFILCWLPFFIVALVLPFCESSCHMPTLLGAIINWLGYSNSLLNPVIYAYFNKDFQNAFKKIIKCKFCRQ
Method: For SHT1a serotonin receptors, membranes (S-160, RBI/Sigma) are diluted into binding buffer (50 mM Tris pH 7.4 10 mM MgCl2 and 0.5 mM EDTA, with ascorbate at 1 mg/ml added immediately before use), e.g., 10 µl of membranes in 500 µl assay volume (i.e., 1:50 dilution). Cold competitor or test competitor is then added, e.g., 5 µl of 100x stock solution such as 5 µl of 1 mM oxymetazoline. Radioligand (^3H-8-OH-DPAT, TRK850, Amersham, 250 µCi in 250 µl; 4.5 µM at 222 Ci/mmol) is then added. For competition studies, ligand is employed (e.g., a 100x stock (i.e., 150 nM) is prepared by diluting the commercial stock 1:30 in binding buffer). Control tubes are prepared which have radioligand but no membranes. The tubes are vortexed then spun briefly. The mixtures are incubated for 1 hour at 4°C. The mixtures are filtered through GF/C filters pre-soaked in polyethyleneimine (0.3% in MilliQ water). The tubes are washed with 2-3 ml of wash buffer and filtered. The filter is washed with 3 x 5 ml of wash buffer, and air dried. 4.5 ml of scintillant is added to the dried filter in a scintillation vial and the filter counted on a tritium channel.

[3] = tested on: SDF-1 induced calcium flux; test: Intracellular calcium flux, SDF-1 as agonist; format: cell-based
[4] = tested on: SDF-1α induced human monocyte migration; test: Migration of freshly prepared peripheral blood monocytes, SDF-1α; format: cell-based
Method: Agents may also be screened in a chemotactic assay which employs human neutrophils, eosinophils, mast cells, basophils, platelets, lymphocytes or monocytes. For monocytes, 9 mls of fresh blood are transferred to a tube containing 1 ml of 3.8% sodium citrate, and left at room temperature for 15 minutes. Five mls of this anti-coagulated blood are carefully layered over 3.5 ml Polymorphprep® (Nycomed Pharma, Oslo), and centrifuged at 500 g for 35 minutes per the manufacturer's instructions. The top band at the sample/medium interface contains monocytes. The monocytes are carefully removed with a glass pipette, and reconstituted to the original volume (5 ml). The cells are washed with PBS plus 10% fetal calf serum, and centrifuged at 400 g for 10 minutes. The washing step is repeated three times before the cells are counted. Cells are resuspended at 1 × 10^7 cells/ml in RPMI-1640 + 10% fetal calf serum (FCS). The monocytes are cultured for two days at 37°C in a humidified atmosphere of 5% CO2-
On day 2, the cells are counted, spun down, and reconstituted to 1 × 10^7 cells/ml in Gey's balanced salt solution + 1 mg/ml bovine serum albumin (BSA). […]

Row | SMILES | stability against enzymatic destruction (in words) (trypsin) | T1/2α [1] [min] | ED50 for competition of 8-OH-DPAT binding to 5-HT1a receptors [2] [µM] | SDF-1 induced calcium flux (in words) [3] | % inhibition at 100 µM versus SDF-1α [4]
1 | CC[C@@H](C)[C@H]1NC(=O)[C@@H](CCC(N)=O)NC(=O)[C@H](N)CSSC[C@H](C(N)=O)NC(=O)[C@@H](CC(C)C)NC(=O)[C@@H](CC(=O)O)NC(=O)[C@H]2CCCN2C(=O)[C@@H](CCCCN)NC(=O)[C@@H](CCC(N)=O)NC(=O)[C@@H](CCCCN)NC(=O)[C@@H](Cc2c[nH]c3ccccc23)NC1=O (H-[dC][dQ][dI][dW][dK][dQ][dK][dP][dD][dL][dC]-NH2; disulfide 1-11) | stable | 15 | >100 | did block | –
2 | CC[C@H](C)[C@H](NC(=O)[C@H](C)NC(=O)[C@H](CC(=O)O)NC(=O)[C@@H]1CCCN1C(=O)[C@H](CCC(N)=O)NC(=O)[C@H](C)N)C(=O)N[C@@H](CC(N)=O)C(=O)N[C@@H](C)C(=O)N1CCC[C@H]1C(=O)N[C@H](C(=O)N[C@H](C(=O)N[C@@H](CS)C(=O)N[C@@H](CS)C(=O)O)[C@@H](C)O)C(C)C [Peptide 1] (H-AQPDAINAPVTCC-OH; N-terminus and C-terminus assumed) | – | – | – | – | n.s.
